Test results: paper PMC7822819, “Discovery of a new class of integrin antibodies for fibrosis” (Scientific Reports, 2021)
Several values for one entry are separate records, joined by “and”; a condition that tells them apart may be missing. Equal entries are not always repeated.

Tests used:
[1] = system: bleomycin-induced lung fibrosis; assay: Bleomycin-induced lung fibrosis mouse model; type: in vivo; settings: BLM mice, Nintedanib 60 mpk po qd
Description: Adult male C57BL/6 mice (Taconic, Rensselaer, NY) were housed in a temperature and humidity-controlled facility with a 12 h light: 12-h dark cycle. Animals had ad libitum access to food (Purina Rodent Chow 5053, LabDiet, St. Louis, MO) and water. All procedures utilizing experimental animals were conducted in accordance with the Guide for the Care and Use of Laboratory Animals, and experimental procedures were reviewed and approved by the Institutional Animal Care and Use Committee at MRL, Kenilworth, NJ. For osmotic minipump implantation, TFA salt of MK-0429 was formulated in 50% DMSO/50% H2O at a concentration of 416 mg/mL. MK-0429 or vehicle solution were filled in minipumps (Alzet, # 1007D, flow rate 0.5 μL/h). Minipumps were placed in mice subcutaneously in a pocket on the back between the shoulder blades. A small incision was made and a subcutaneous pocket formed by blunt dissection. A sterile minipump was inserted into the subcutaneous pocket. The incision was closed with staples or non-absorbable suture or absorbable (subcuticular) suture. The minipumps were used for continuous drug delivery for 2 weeks. Mice at 12 ~ 13 weeks of age were randomized to 5 groups: saline, bleomycin instillation with vehicle (osmotic minipump), bleomycin instillation with MK-0429 treatment, bleomycin instillation with vehicle oral treatment, and bleomycin instillation with Nintedanib treatment. All mice were anaesthetized with isoflurane. Bleomycin was dosed by intra-tracheal (i.t) instillation in a volume of 50 µl, at a dose of 1unit /kg body weight. After instillation, mice were kept in a heads-up position for 2–5 min before putting into cages. MK-0429 (200 mg/kg) was administered by Osmotic pump from day 5 to day 14 and Nintedanib (60 mg/kg) was administered, p.o., q.d., for 14 days. Vehicle was dosed orally at 10 am daily from the day 5 to the end of the studies and dosing volume was 10 mL/kg. For plasma PK analysis, an aliquot of 50 μL plasma was spiked into a 96-well plate, and 200 μL of acetonitrile containing internal standard were added for protein precipitation. The mixture was vortexed, centrifuged at 4000 rpm for 20 min. 50 μL of supernatant were mixed with 200 μl H2O and the final solution were injected for LC–MS/MS analysis. The methods for quantitative analysis were developed on UPLC (Waters) chromatographic system equipped with an API4000 QTrap mass spectrometer (Applied Biosystems, Concord, Ontario, Canada). Analyst 1.5 software packages (Applied Biosystems) were used to control the LC–MS/MS system and data acquisition and processing. Upon completion of the study, animals were euthanized and tissues were collected for histological assessment. Lung tissues were perfused with 10% formalin, fixed for 24 h, and then paraffin embedded. Tissue sections were stained with hematoxylin & eosin (H&E) and Masson’s trichrome, subsequently evaluated under light microscope. The severity of histopathologic changes and fibrosis in the lung were graded as described previously by pathologists[51],[52]. Following deparaffinization and rehydration, each lung tissue section was processed to identify αSMA deposition by immunohistochemistry. The primary antibodies used were αSMA antibody from Sigma. The Aperio ScanScope XT Slide Scanner (Aperio Technologies) system was used to capture whole slide digital images with a 20 × objective. Digital images were managed using Aperio Spectrum. The positive stains were identified and quantified using a macro created from a color deconvolution algorithm (Aperio Technologies). Statistical analysis was performed by using One-way ANOVA followed by Tukey’s test.

[2] = Plasma total drug concentration in bleomycin model (LC-MS/MS); type: in vivo, mouse; settings: 2 h after last dose, Day 19; MK-0429 200 mpk minipump, Nintedanib 60 mpk po qd; mean ± SE
Description: Mice at 12 ~ 13 weeks of age were randomized to 5 groups: saline, bleomycin instillation with vehicle (osmotic minipump), bleomycin instillation with MK-0429 treatment, bleomycin instillation with vehicle oral treatment, and bleomycin instillation with Nintedanib treatment. All mice were anaesthetized with isoflurane. Bleomycin was dosed by intra-tracheal (i.t) instillation in a volume of 50 µl, at a dose of 1unit /kg body weight. After instillation, mice were kept in a heads-up position for 2–5 min before putting into cages. MK-0429 (200 mg/kg) was administered by Osmotic pump from day 5 to day 14 and Nintedanib (60 mg/kg) was administered, p.o., q.d., for 14 days. Vehicle was dosed orally at 10 am daily from the day 5 to the end of the studies and dosing volume was 10 mL/kg. For plasma PK analysis, an aliquot of 50 μL plasma was spiked into a 96-well plate, and 200 μL of acetonitrile containing internal standard were added for protein precipitation. The mixture was vortexed, centrifuged at 4000 rpm for 20 min. 50 μL of supernatant were mixed with 200 μl H2O and the final solution were injected for LC–MS/MS analysis. The methods for quantitative analysis were developed on UPLC (Waters) chromatographic system equipped with an API4000 QTrap mass spectrometer (Applied Biosystems, Concord, Ontario, Canada). […]

[3] = system: IPF patient lung fibroblasts; assay: TGFβ-induced αSMA high-content imaging; type: cell-based, human; settings: TGFβ 5 ng/mL, 48 h, read-out: IC50 TGFβ-mediated αSMA induction
Description: (§1) Normal human lung fibroblasts (Lonza) and Primary Human IPF Lung Parenchymal Fibroblasts (Donor2) (BioIVT, #PCR-70-0214) were incubated at 37 °C and 5% CO2. To induce fibrotic response in primary cells, a final concentration of 5 ng/ml of recombinant human TGFβ1 (BioLegend, #580702) was added to the culture media and treated for 24 ~ 48 h. Anti-TGFβ neutralizing antibody (1D11) and the isotype control mouse IgG1 were from BioXcell. SB-525334 and bleomycin were from Sigma. MK-0429 was synthesized by Merck & Co., Inc., Kenilworth, NJ, USA. CHOK1-integrin stable lines were cultured in DMEM/F12, Glutamax (Gibco #10565018), 10% FBS (Gibco 310091148), 1 × Pen/Strep (Gibco 315140-148), and 6 ug/mL Puromycin (Gibco #A1113803).
(§2) Primary cells (passage 3–5) were grown on Cell carrier Ultra, col1 coated 96-well plates (Perkin Elmer, #6055700) at a density of 25,000 cells/well. Once the cells adhere, they were starved in serum free media for 24 h followed by addition of treatments i.e. 5 ng/mL TGFβ (Biolegend #580702) ± inhibitors. Cells were pre-treated with inhibitors for 30 min prior to the addition of TGFβ stimulation. 48hours post treatment, the cells were fixed in 4% methanol free paraformaldehyde (ThermoFisher Scientific #28908) for 20 min at room temperature and incubated with anti-alpha smooth muscle Actin antibody (Abcam #ab7817) at 1:4000 overnight at 4 °C. […]

[4] = system: normal human lung fibroblasts; assay: TGFβ-induced αSMA high-content imaging; type: cell-based; settings: 10 μM, 30 min pre-treatment, TGFβ 5 ng/mL, 48 h
Description: as §1, §2

[5] = treatment from day 5 for 14 days, MK-0429 200 mpk osmotic minipump, vs BLM-vehicle

Row | Structure (SMILES) | TIMP-1 content in BALF ([1]; 14 days treatment, MK-0429 200 mpk minipump) | Modified Ashcroft score of mouse lung [1, 5] | Total inflammation area in mouse lungs [1, 5] | αSMA immunohistochemistry in lung [1, 5] | Body weight vs bleomycin group ([1]; MK-0429 200 mpk minipump) | Mean plasma total drug concentration [2] | IC50 [3] | αSMA intensity and percentage of stimulated cells following TGFβ treatment [4]
1 | COC(=O)c1ccc2c(c1)NC(=O)/C2=C(\Nc1ccc(N(C)C(=O)CN2CCN(C)CC2)cc1)c1ccccc1 [Nintedanib] | significantly decreased | significantly improved | decreased | significantly decreased | no significant body weight difference | 656.1 ng/mL and 656 ± 229 ng/mL | – | –
2 | Cc1cccc(-c2[nH]c(C(C)(C)C)nc2-c2ccc3nccnc3c2)n1 [SB-525334] | – | – | – | – | – | – | 56 ± 22 nM | significantly reduced
